Test results: ChEMBL document CHEMBL1641407, “Imidazo[4,5-d]thiazolo[5,4-b]pyridine based inhibitors of IKK2: synthesis, SAR, PK/PD and activity in a preclinical model of rheumatoid arthritis” (Bioorg Med Chem Lett, 2011)

Assays:
Blood = experiment: Antiinflammatory activity in human whole blood assessed as inhibition of LPS-induced TNFalpha release treated for 5 mins before LPS challenge measured after 6 hrs by ELISA; format: functional, tissue-based
[1] = Half life in mouse at 2 mg/kg, iv and 10 mg/kg, po; format: ADME, organism-based; details: in vivo
[2] = Tmax in rat at 2 mg/kg, iv and 10 mg/kg, po; format: ADME, organism-based; details: in vivo
[3] = biological target: T1, Inhibitor of nuclear factor kappa-B kinase subunit alpha (Homo sapiens, UniProt O15111); experiment: Inhibition of IKK1
T1 sequence (O15111 whole entry): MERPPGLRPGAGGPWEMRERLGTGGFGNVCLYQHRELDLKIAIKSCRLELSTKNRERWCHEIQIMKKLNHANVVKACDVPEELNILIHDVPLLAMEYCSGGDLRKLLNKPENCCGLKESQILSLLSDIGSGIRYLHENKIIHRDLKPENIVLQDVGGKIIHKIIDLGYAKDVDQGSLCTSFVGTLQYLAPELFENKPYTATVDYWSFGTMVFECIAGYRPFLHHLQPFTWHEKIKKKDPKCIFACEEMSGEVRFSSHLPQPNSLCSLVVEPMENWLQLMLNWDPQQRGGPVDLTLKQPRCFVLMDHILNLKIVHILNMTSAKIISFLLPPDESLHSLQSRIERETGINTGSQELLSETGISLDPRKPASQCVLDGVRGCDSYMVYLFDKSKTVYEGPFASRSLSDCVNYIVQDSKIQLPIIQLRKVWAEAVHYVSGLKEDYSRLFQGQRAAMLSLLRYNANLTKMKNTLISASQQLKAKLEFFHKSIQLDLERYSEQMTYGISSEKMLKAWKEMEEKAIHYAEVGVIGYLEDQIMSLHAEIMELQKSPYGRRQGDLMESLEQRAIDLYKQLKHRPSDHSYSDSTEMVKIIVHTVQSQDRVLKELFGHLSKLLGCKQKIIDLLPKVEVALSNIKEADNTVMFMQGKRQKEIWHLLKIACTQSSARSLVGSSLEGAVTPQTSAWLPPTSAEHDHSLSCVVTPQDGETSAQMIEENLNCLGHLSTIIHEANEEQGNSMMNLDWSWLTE

[4] = biological target: T2, Cyclin-G-associated kinase (Homo sapiens) (UniProt O14976); experiment: Residual activity at GAK at 10 uM relative to control
T2 sequence (whole entry): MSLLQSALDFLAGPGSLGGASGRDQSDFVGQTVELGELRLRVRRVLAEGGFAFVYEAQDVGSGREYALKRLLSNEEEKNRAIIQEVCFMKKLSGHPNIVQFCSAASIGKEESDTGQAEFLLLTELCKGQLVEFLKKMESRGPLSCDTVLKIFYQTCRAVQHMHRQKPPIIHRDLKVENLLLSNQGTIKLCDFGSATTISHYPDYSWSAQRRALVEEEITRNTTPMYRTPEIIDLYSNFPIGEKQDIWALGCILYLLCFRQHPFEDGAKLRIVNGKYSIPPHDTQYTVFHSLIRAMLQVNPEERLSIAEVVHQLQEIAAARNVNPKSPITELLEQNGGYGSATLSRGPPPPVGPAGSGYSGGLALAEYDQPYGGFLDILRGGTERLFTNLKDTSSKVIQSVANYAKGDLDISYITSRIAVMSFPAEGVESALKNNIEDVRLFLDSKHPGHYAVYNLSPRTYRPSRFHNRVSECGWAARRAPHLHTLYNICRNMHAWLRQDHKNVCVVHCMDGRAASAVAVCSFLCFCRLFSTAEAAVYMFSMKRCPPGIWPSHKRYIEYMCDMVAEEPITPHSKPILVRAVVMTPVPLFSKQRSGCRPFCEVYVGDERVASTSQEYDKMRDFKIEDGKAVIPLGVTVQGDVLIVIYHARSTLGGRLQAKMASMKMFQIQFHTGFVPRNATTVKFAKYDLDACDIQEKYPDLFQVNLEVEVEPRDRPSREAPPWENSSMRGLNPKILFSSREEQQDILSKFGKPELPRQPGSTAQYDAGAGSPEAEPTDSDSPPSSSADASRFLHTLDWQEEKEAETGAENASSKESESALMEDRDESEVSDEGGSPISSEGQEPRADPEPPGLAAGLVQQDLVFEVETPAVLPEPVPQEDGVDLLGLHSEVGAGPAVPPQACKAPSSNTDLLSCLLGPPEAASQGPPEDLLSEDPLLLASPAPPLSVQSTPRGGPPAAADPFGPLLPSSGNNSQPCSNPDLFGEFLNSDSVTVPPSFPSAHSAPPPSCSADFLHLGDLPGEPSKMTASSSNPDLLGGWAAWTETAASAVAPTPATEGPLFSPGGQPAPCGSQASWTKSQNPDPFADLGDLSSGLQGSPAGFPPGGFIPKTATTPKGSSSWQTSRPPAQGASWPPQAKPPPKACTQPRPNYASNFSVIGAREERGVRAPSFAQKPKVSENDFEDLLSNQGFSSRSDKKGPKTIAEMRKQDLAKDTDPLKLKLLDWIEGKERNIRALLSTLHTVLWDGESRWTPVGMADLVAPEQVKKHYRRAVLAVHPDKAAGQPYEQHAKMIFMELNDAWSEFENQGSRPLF

## CCNc1nc2sc(-c3cccc([C@H](C)NC(C)=O)c3)nc2c2c1ncn2C
Blood
  IC50: 2 µM
[1]
  half-life: 1.9 h
[2]
  Tmax: 2 h
[3]
  IC50: 0.42 µM
[4]
  residual activity: < 10%
